{
  "source": "the supplement of paper PMC10307832",
  "assay_in_all_cases": "relative viability (nuclei count vs DMSO), 5 days (fraction); higher = more cells survive",
  "key": {"PC-14": {"tested_on": "PC-14", "how_it_was_run": "(§1)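 Relative viability equals treated-well nuclei counts divided by vehicle-well nuclei counts. Counts came from 4× images of lung cancer cell lines grown in 1536-well plates for 5 days after pin-tool dosing on the day after seeding. Dosing used one drug alone or a fixed anchor-drug dose plus five library-drug doses (not always all listed) in √10 steps, and values are medians of duplicate plates.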"}, "HCC-366": {"tested_on": "HCC-366", "how_it_was_run": "as §1"}, "NCI-H2228": {"tested_on": "NCI-H2228", "how_it_was_run": "as §1"}, "NCI-H2347": {"tested_on": "NCI-H2347", "how_it_was_run": "as §1"}, "SW 1573": {"tested_on": "SW 1573", "how_it_was_run": "as §1"}, "NCI-H596": {"tested_on": "NCI-H596", "how_it_was_run": "as §1"}, "EBC-1": {"tested_on": "EBC-1", "how_it_was_run": "as §1"}, "SK-MES-1": {"tested_on": "SK-MES-1", "how_it_was_run": "as §1"}, "LC-2-ad": {"tested_on": "LC-2-ad", "how_it_was_run": "as §1"}, "HOP-62": {"tested_on": "HOP-62", "how_it_was_run": "as §1"}, "NCI-H2085": {"tested_on": "NCI-H2085", "how_it_was_run": "as §1"}, "LK-2": {"tested_on": "LK-2", "how_it_was_run": "as §1"}, "RERF-LC-KJ": {"tested_on": "RERF-LC-KJ", "how_it_was_run": "as §1"}, "NCI-H2405": {"tested_on": "NCI-H2405", "how_it_was_run": "as §1"}, "HCC-78": {"tested_on": "HCC-78", "how_it_was_run": "as §1"}, "EMC-BAC-2": {"tested_on": "EMC-BAC-2", "how_it_was_run": "as §1"}, "NCI-H2009": {"tested_on": "NCI-H2009", "how_it_was_run": "as §1"}, "NCI-H1993": {"tested_on": "NCI-H1993", "how_it_was_run": "as §1"}, "NCI-H1734": {"tested_on": "NCI-H1734", "how_it_was_run": "as §1"}, "NCI-H1355": {"tested_on": "NCI-H1355", "how_it_was_run": "as §1"}, "CAL-12T": {"tested_on": "CAL-12T", "how_it_was_run": "as §1"}, "Calu-6": {"tested_on": "Calu-6", "how_it_was_run": "as §1"}, "NCI-H3122": {"tested_on": "NCI-H3122", "how_it_was_run": "as §1"}},
  "data": [
    {"smiles": "CCCCCCCCCCCC1=C(O)C(=O)C=C(O)C1=O", "note": "[Embelin] + CS(=O)(=O)CCNCc1ccc(-c2ccc3ncnc(Nc4ccc(OCc5cccc(F)c5)c(Cl)c4)c3c2)o1 [Lapatinib] (partner 2 µM)", "values": [
      {"measurement": "relative viability", "setting": "PC-14; first compound 0.08 µM", "value": 0.391},
      {"measurement": "relative viability", "setting": "PC-14; first compound 0.8 µM", "value": 0.355},
      {"measurement": "relative viability", "setting": "PC-14; first compound 2.53 µM", "value": 0.347},
      {"measurement": "relative viability", "setting": "PC-14; first compound 8 µM", "value": 0.353},
      {"measurement": "relative viability", "setting": "HCC-366; first compound 0.08 µM", "value": 1.08},
      {"measurement": "relative viability", "setting": "HCC-366; first compound 0.8 µM", "value": 1.11},
      {"measurement": "relative viability", "setting": "HCC-366; first compound 2.53 µM", "value": 1.21},
      {"measurement": "relative viability", "setting": "HCC-366; first compound 8 µM", "value": 1.32},
      {"measurement": "relative viability", "setting": "NCI-H2228; first compound 0.08 µM", "value": 1.36},
      {"measurement": "relative viability", "setting": "NCI-H2228; first compound 0.8 µM", "value": 1.1},
      {"measurement": "relative viability", "setting": "NCI-H2228; first compound 2.53 µM", "value": 1.41},
      {"measurement": "relative viability", "setting": "NCI-H2228; first compound 8 µM", "value": 1.08},
      {"measurement": "relative viability", "setting": "NCI-H2347; first compound 0.08 µM", "value": 1.02},
      {"measurement": "relative viability", "setting": "NCI-H2347; first compound 0.8 µM", "value": 0.929},
      {"measurement": "relative viability", "setting": "NCI-H2347; first compound 2.53 µM", "value": 0.968},
      {"measurement": "relative viability", "setting": "NCI-H2347; first compound 8 µM", "value": 0.969},
      {"measurement": "relative viability", "setting": "SW 1573; first compound 0.08 µM", "value": 1.04},
      {"measurement": "relative viability", "setting": "SW 1573; first compound 0.8 µM", "value": 1.03},
      {"measurement": "relative viability", "setting": "SW 1573; first compound 2.53 µM", "value": 1.33},
      {"measurement": "relative viability", "setting": "SW 1573; first compound 8 µM", "value": 1.09},
      {"measurement": "relative viability", "setting": "NCI-H596; first compound 0.08 µM", "value": 1.17},
      {"measurement": "relative viability", "setting": "NCI-H596; first compound 0.8 µM", "value": 1.07},
      {"measurement": "relative viability", "setting": "NCI-H596; first compound 2.53 µM", "value": 1.12},
      {"measurement": "relative viability", "setting": "NCI-H596; first compound 8 µM", "value": 1.17},
      {"measurement": "relative viability", "setting": "EBC-1; first compound 0.08 µM", "value": 0.202},
      {"measurement": "relative viability", "setting": "EBC-1; first compound 0.8 µM", "value": 0.247},
      {"measurement": "relative viability", "setting": "EBC-1; first compound 2.53 µM", "value": 0.218},
      {"measurement": "relative viability", "setting": "EBC-1; first compound 8 µM", "value": 0.217},
      {"measurement": "relative viability", "setting": "SK-MES-1; first compound 0.08 µM", "value": 0.496},
      {"measurement": "relative viability", "setting": "SK-MES-1; first compound 0.8 µM", "value": 0.496},
      {"measurement": "relative viability", "setting": "SK-MES-1; first compound 2.53 µM", "value": 0.516},
      {"measurement": "relative viability", "setting": "SK-MES-1; first compound 8 µM", "value": 0.477},
      {"measurement": "relative viability", "setting": "LC-2-ad; first compound 0.08 µM", "value": 0.96},
      {"measurement": "relative viability", "setting": "LC-2-ad; first compound 0.8 µM", "value": 1.16},
      {"measurement": "relative viability", "setting": "LC-2-ad; first compound 2.53 µM", "value": 1.07},
      {"measurement": "relative viability", "setting": "LC-2-ad; first compound 8 µM", "value": 0.983},
      {"measurement": "relative viability", "setting": "HOP-62; first compound 0.08 µM", "value": 1.01},
      {"measurement": "relative viability", "setting": "HOP-62; first compound 0.8 µM", "value": 1.08},
      {"measurement": "relative viability", "setting": "HOP-62; first compound 2.53 µM", "value": 1.1},
      {"measurement": "relative viability", "setting": "HOP-62; first compound 8 µM", "value": 0.908},
      {"measurement": "relative viability", "setting": "NCI-H2085; first compound 0.08 µM", "value": 0.743},
      {"measurement": "relative viability", "setting": "NCI-H2085; first compound 0.8 µM", "value": 0.92},
      {"measurement": "relative viability", "setting": "NCI-H2085; first compound 2.53 µM", "value": 0.778},
      {"measurement": "relative viability", "setting": "NCI-H2085; first compound 8 µM", "value": 0.731},
      {"measurement": "relative viability", "setting": "LK-2; first compound 0.08 µM", "value": 0.906},
      {"measurement": "relative viability", "setting": "LK-2; first compound 0.8 µM", "value": 0.991},
      {"measurement": "relative viability", "setting": "LK-2; first compound 2.53 µM", "value": 1.24},
      {"measurement": "relative viability", "setting": "LK-2; first compound 8 µM", "value": 0.825},
      {"measurement": "relative viability", "setting": "RERF-LC-KJ; first compound 0.08 µM", "value": 0.81},
      {"measurement": "relative viability", "setting": "RERF-LC-KJ; first compound 0.8 µM", "value": 0.935},
      {"measurement": "relative viability", "setting": "RERF-LC-KJ; first compound 2.53 µM", "value": 0.991},
      {"measurement": "relative viability", "setting": "RERF-LC-KJ; first compound 8 µM", "value": 0.84},
      {"measurement": "relative viability", "setting": "NCI-H2405; first compound 0.08 µM", "value": 1.16},
      {"measurement": "relative viability", "setting": "NCI-H2405; first compound 0.8 µM", "value": 1.48},
      {"measurement": "relative viability", "setting": "NCI-H2405; first compound 2.53 µM", "value": 1.06},
      {"measurement": "relative viability", "setting": "NCI-H2405; first compound 8 µM", "value": 1.02},
      {"measurement": "relative viability", "setting": "HCC-78; first compound 0.08 µM", "value": 0.767},
      {"measurement": "relative viability", "setting": "HCC-78; first compound 0.8 µM", "value": 0.703},
      {"measurement": "relative viability", "setting": "HCC-78; first compound 2.53 µM", "value": 0.796},
      {"measurement": "relative viability", "setting": "HCC-78; first compound 8 µM", "value": 0.616},
      {"measurement": "relative viability", "setting": "EMC-BAC-2; first compound 0.08 µM", "value": 0.932},
      {"measurement": "relative viability", "setting": "EMC-BAC-2; first compound 0.8 µM", "value": 0.959},
      {"measurement": "relative viability", "setting": "EMC-BAC-2; first compound 2.53 µM", "value": 0.926},
      {"measurement": "relative viability", "setting": "EMC-BAC-2; first compound 8 µM", "value": 0.817},
      {"measurement": "relative viability", "setting": "NCI-H2009; first compound 0.08 µM", "value": 1.05},
      {"measurement": "relative viability", "setting": "NCI-H2009; first compound 0.8 µM", "value": 1.09},
      {"measurement": "relative viability", "setting": "NCI-H2009; first compound 2.53 µM", "value": 0.815},
      {"measurement": "relative viability", "setting": "NCI-H2009; first compound 8 µM", "value": 0.879},
      {"measurement": "relative viability", "setting": "NCI-H1993; first compound 0.08 µM", "value": 0.845},
      {"measurement": "relative viability", "setting": "NCI-H1993; first compound 0.8 µM", "value": 0.777},
      {"measurement": "relative viability", "setting": "NCI-H1993; first compound 2.53 µM", "value": 0.803},
      {"measurement": "relative viability", "setting": "NCI-H1993; first compound 8 µM", "value": 0.834},
      {"measurement": "relative viability", "setting": "NCI-H1734; first compound 0.08 µM", "value": 0.963},
      {"measurement": "relative viability", "setting": "NCI-H1734; first compound 0.8 µM", "value": 1.28},
      {"measurement": "relative viability", "setting": "NCI-H1734; first compound 2.53 µM", "value": 1.26},
      {"measurement": "relative viability", "setting": "NCI-H1734; first compound 8 µM", "value": 1.12},
      {"measurement": "relative viability", "setting": "NCI-H1355; first compound 0.08 µM", "value": 0.878},
      {"measurement": "relative viability", "setting": "NCI-H1355; first compound 0.8 µM", "value": 1.15},
      {"measurement": "relative viability", "setting": "NCI-H1355; first compound 2.53 µM", "value": 1.07},
      {"measurement": "relative viability", "setting": "NCI-H1355; first compound 8 µM", "value": 0.686},
      {"measurement": "relative viability", "setting": "CAL-12T; first compound 0.08 µM", "value": 0.757},
      {"measurement": "relative viability", "setting": "CAL-12T; first compound 0.8 µM", "value": 0.878},
      {"measurement": "relative viability", "setting": "CAL-12T; first compound 8 µM", "value": 0.703},
      {"measurement": "relative viability", "setting": "Calu-6; first compound 0.08 µM", "value": 1.03},
      {"measurement": "relative viability", "setting": "Calu-6; first compound 0.8 µM", "value": 1.11},
      {"measurement": "relative viability", "setting": "Calu-6; first compound 2.53 µM", "value": 1.08},
      {"measurement": "relative viability", "setting": "Calu-6; first compound 8 µM", "value": 1.14},
      {"measurement": "relative viability", "setting": "NCI-H3122; first compound 0.08 µM", "value": 1.02},
      {"measurement": "relative viability", "setting": "NCI-H3122; first compound 0.8 µM", "value": 0.977},
      {"measurement": "relative viability", "setting": "NCI-H3122; first compound 2.53 µM", "value": 0.956},
      {"measurement": "relative viability", "setting": "NCI-H3122; first compound 8 µM", "value": 1.09}
    ]}
  ]
}
